Assay results taken from patent publication US20220403001A1, “PDE5 DERIVED REGULATORY CONSTRUCTS AND METHODS OF USE IN IMMUNOTHERAPY” (Obsidian Therapeutics, Inc., priority 2018, published 2022).
Each block holds one substance with its values, some of them ahead of it.

What was measured:
hPDE5 mutants [1] = experiment: GFP expression (MFI) by FACS in HEK293 cells expressing hPDE5 constructs
Protocol: The mutant library was ligated in frame with an AcGFP reporter at C-terminus and cloned into pLVX-IRES—Puro vectors. […] DNA was extracted from the cell pool, cloned into vectors, and transformed into E. coli. Individual clones were sequenced and cloned in frame with a linker [sequence] […] HEK293 cells were transduced with individual clones and selected with puromycin.
The GFP expression in cells expressing hPDE5 constructs was measured by FACS.
The stability of hPDE5 mutants was measured using FACS and mean fluorescence intensity (MFI) of GFP was calculated.

hPDE5 mutants [2] = target: T1, hPDE5 mutants (Homo sapiens, UniProt O76074); experiment: GFP MFI by FACS in HCT116 cells transduced with hPDE5 constructs; format: cell-based; details: for Vardenafil Stabilization ratio / Sildenafil Stabilization ratio / GFP by FACS, Sildenafil 10 μM / GFP by FACS, Vardenafil 1 μM: hotspot constructs; for Vardenafil Stabilization ratio: 1 μM Vardenafil; for Sildenafil Stabilization ratio: 10 μM Sildenafil; for GFP by FACS, Sildenafil 10 μM / GFP by FACS, Vardenafil 1 μM: HCT116
Protocol: (§1) Desirable qualities of a DD include, low expression of the SRE in the absence of ligand and ligand dependent stabilization of the SRE. Constructs were generated using DDs linked to GFP using an SG linker. […] The mean fluorescence intensity (MFI) of GFP was analyzed by FACS. […] Destabilizing mutation coefficient less than 1 are desirable.
(§2) Mean fluorescence intensity (MFI) was measured by FACS. […] Destabilizing mutation coefficient ratios less than 1 are desirable.
(§3) Mean fluorescence intensity (MFI) was measured by FACS. […] Destabilizing mutation co-efficient ratios less than 1 are desirable.
(§4) Mean fluorescence intensity (MFI) was measured by FACS. […] Destabilizing mutation coefficient less than 1 are desirable.
as §4
(§5) Mean fluorescence intensity (MFI) of GFP was measured by FACS.
(§6) Mean fluorescence intensity (MFI) was measured by FACS.
(§7) The media containing the ligand was removed and fresh media without the ligand was added.
(§8) The properties of the DDs were analyzed in the presence and absence of ligands via FACS as previously described.
(§9) GFP fluorescence was measured by FACS.
(§10) The properties of the DDs were analyzed via FACS both in the presence and absence of ligands.
as §9

hPDE5 mutants [3] = experiment: as above; format: cell-based, human; details: for MFI: 48 hours, HCT 116 cells; for Sildenafil Destabilizing mutation coefficient / Vardenafil Destabilizing mutation coefficient / GFP by FACS, Sildenafil 0 μM (DMSO) / GFP by FACS, Vardenafil 0 μM (DMSO): hotspot constructs; for Sildenafil Destabilizing mutation coefficient: DMSO control of Sildenafil; for Sildenafil Destabilizing mutation coefficient / Vardenafil Destabilizing mutation coefficient: vs OT-001075; for Vardenafil Destabilizing mutation coefficient: DMSO control of Vardenafil; for GFP by FACS, Sildenafil 0 μM (DMSO): HCT116, DMSO control of Sildenafil; for GFP by FACS, Vardenafil 0 μM (DMSO): HCT116, DMSO control of Vardenafil
Protocol: as §1, §2, §3, §4, §4, §5, §6, §7, §8, §9, §10, §9

hPDE5 mutants [4] = target: T1, hPDE5 mutants; experiment: Western blot of AcGFP/GFP protein levels in HCT 116 cells expressing hPDE5 mutants; format: cell-based; parameters: GFP protein levels (western blot); fused on or other part: AcGFP reporter through a linker; details: vardenafil vs DMSO, HCT 116, R732 mutants
Protocol: Protein expression analysis of the combination mutants was performed in parallel via western blot. […] GAPDH levels were also analyzed to ensure even protein loading.

[5] = Sildenafil 0.0005 μM, 48 h, HEK293
[6] = Sildenafil 3.33 μM, 48 h, HEK293
[7] = Sildenafil 10 μM, 48 h, HEK293 (dose titration)
[8] = Sildenafil 10 μM, 48 h, HEK293 (time course)
[9] = Vardenafil 0.0005 μM, 48 h, HEK293
[10] = Vardenafil 3.33 μM, 48 h, HEK293
[11] = Vardenafil (10 μM), 48 h, Table 25, cell line not given in table
[12] = Table 44, Vardenafil 0.01 μM, 48 h, HCT 116
[13] = Table 44, Vardenafil 0.04 μM, 48 h, HCT 116
[14] = Table 44, Vardenafil 3.33 μM, 48 h, HCT 116
[15] = Table 44, Vardenafil 10 μM, 48 h, HCT 116
[16] = Table 44, Vardenafil 30 μM, 48 h, HCT 116
[17] = Table 44, Vardenafil 1000 μM, 48 h, HCT 116
[18] = Table 45, Sildenafil 0.01 μM, 48 h, HCT 116
[19] = Table 45, Sildenafil 0.04 μM, 48 h, HCT 116
[20] = Table 45, Sildenafil 3.33 μM, 48 h, HCT 116
[21] = Table 45, Sildenafil 10 μM, 48 h, HCT 116
[22] = Table 45, Sildenafil 30 μM, 48 h, HCT 116
[23] = Table 45, Sildenafil 1000 μM, 48 h, HCT 116
[24] = Tadalafil 0.01 μM, 48 hours, HCT 116 cells

Substance: OT-001083: hPDE5-Y728L AcGFP construct
MFI (hPDE5 mutants [1]; [5]): 4422
Stabilization ratio (hPDE5 mutants [1]; [5]): 1.01
MFI (hPDE5 mutants [1]; [6]): 17960
Stabilization ratio (hPDE5 mutants [1]; [6]): 4.09
MFI (hPDE5 mutants [1]; Sildenafil 10 μM, 2 h, HEK293): 7290
Stabilization ratio (hPDE5 mutants [1]; Sildenafil 10 μM, 2 h, HEK293): 1.37
MFI (hPDE5 mutants [1]; Sildenafil 10 μM, 4 h, HEK293): 8675
Stabilization ratio (hPDE5 mutants [1]; Sildenafil 10 μM, 4 h, HEK293): 1.64
MFI (hPDE5 mutants [1]; Sildenafil 10 μM, 6 h, HEK293): 10929
Stabilization ratio (hPDE5 mutants [1]; Sildenafil 10 μM, 6 h, HEK293): 2.06
MFI (hPDE5 mutants [1]; Sildenafil 10 μM, 16 h, HEK293): 19034
Stabilization ratio (hPDE5 mutants [1]; Sildenafil 10 μM, 16 h, HEK293): 3.59
MFI (hPDE5 mutants [1]; Sildenafil 10 μM, 24 h, HEK293): 27246
Stabilization ratio (hPDE5 mutants [1]; Sildenafil 10 μM, 24 h, HEK293): 5.14
MFI (hPDE5 mutants [1]; [7]): 32480
Stabilization ratio (hPDE5 mutants [1]; [7]): 7.40
MFI (hPDE5 mutants [1]; [8]): 34796
Stabilization ratio (hPDE5 mutants [1]; [8]): 6.56
MFI (hPDE5 mutants [1]; [9]): 7894
Stabilization ratio (hPDE5 mutants [1]; [9]): 0.99
MFI (hPDE5 mutants [1]; [10]): 134306
Stabilization ratio (hPDE5 mutants [1]; [10]): 16.85
MFI (hPDE5 mutants [1]; Vardenafil 10 μM, 48 h, HEK293): 166236
Stabilization ratio (hPDE5 mutants [1]; Vardenafil 10 μM, 48 h, HEK293): 20.86
Stabilization ratio (hPDE5 mutants [1]; Vardenafil (1 μM), 48 h, Table 25, cell line not given in table): 13.26
MFI (hPDE5 mutants [1]; Vardenafil (1 μM), 48 h, Table 25, cell line not given in table (HEK293, HCT-116, SKOV-3)): 68816
MFI (hPDE5 mutants [1]; [11]): 123150
Stabilization ratio (hPDE5 mutants [1]; [11]): 23.72

MFI (hPDE5 mutants [2]; [12]): 2854
MFI (hPDE5 mutants [2]; [13]): 6862
MFI (hPDE5 mutants [2]; [14]): 41788
MFI (hPDE5 mutants [2]; [15]): 48946
MFI (hPDE5 mutants [2]; [16]): 67364
MFI (hPDE5 mutants [2]; [17]): 67364
MFI (hPDE5 mutants [2]; [18]): 856
MFI (hPDE5 mutants [2]; [19]): 1041
MFI (hPDE5 mutants [2]; [20]): 6896
MFI (hPDE5 mutants [2]; [21]): 12407
MFI (hPDE5 mutants [2]; [22]): 21258
MFI (hPDE5 mutants [2]; [23]): 21258
MFI (hPDE5 mutants [2]; [24]): 825
Vardenafil Stabilization ratio (hPDE5 mutants [2]): 1.15
Sildenafil Stabilization ratio (hPDE5 mutants [2]): 1.98
GFP by FACS, Sildenafil 10 μM (hPDE5 mutants [2]): 546
GFP by FACS, Vardenafil 1 μM (hPDE5 mutants [2]): 270
GFP protein levels (western blot) (hPDE5 mutants [4]): strong stabilization of GFP levels
Substance: OT-001197: hPDE5 R732T AcGFP construct
MFI (hPDE5 mutants [3]; Tadalafil 11.11 μM): 12843
MFI (hPDE5 mutants [3]; Tadalafil 33.33 μM): 17164
MFI (hPDE5 mutants [3]; Tadalafil 100 μM): 21113
MFI (hPDE5 mutants [3]; Tadalafil 1000 μM): 21113
Sildenafil Destabilizing mutation coefficient (hPDE5 mutants [3]): 0.28
Vardenafil Destabilizing mutation coefficient (hPDE5 mutants [3]): 1.46
GFP by FACS, Sildenafil 0 μM (DMSO) (hPDE5 mutants [3]): 276
GFP by FACS, Vardenafil 0 μM (DMSO) (hPDE5 mutants [3]): 235

Vardenafil Stabilization ratio (hPDE5 mutants [2]): 0.93
Sildenafil Stabilization ratio (hPDE5 mutants [2]): 1.64
GFP by FACS, Sildenafil 10 μM (hPDE5 mutants [2]): 516
GFP by FACS, Vardenafil 1 μM (hPDE5 mutants [2]): 290
GFP protein levels (western blot) (hPDE5 mutants [4]): strong stabilization of GFP levels
Substance: OT-001201: hPDE5 R732N AcGFP construct
Sildenafil Destabilizing mutation coefficient (hPDE5 mutants [3]): 0.32
Vardenafil Destabilizing mutation coefficient (hPDE5 mutants [3]): 1.94
GFP by FACS, Sildenafil 0 μM (DMSO) (hPDE5 mutants [3]): 315
GFP by FACS, Vardenafil 0 μM (DMSO) (hPDE5 mutants [3]): 313

Vardenafil Stabilization ratio (hPDE5 mutants [2]): 0.77
Sildenafil Stabilization ratio (hPDE5 mutants [2]): 1.07
GFP by FACS, Sildenafil 10 μM (hPDE5 mutants [2]): 316
GFP by FACS, Vardenafil 1 μM (hPDE5 mutants [2]): 212
GFP protein levels (western blot) (hPDE5 mutants [4]): strong stabilization of GFP levels
Substance: OT-001199: hPDE5 R732E AcGFP construct
Sildenafil Destabilizing mutation coefficient (hPDE5 mutants [3]): 0.3
Vardenafil Destabilizing mutation coefficient (hPDE5 mutants [3]): 1.71
GFP by FACS, Sildenafil 0 μM (DMSO) (hPDE5 mutants [3]): 295
GFP by FACS, Vardenafil 0 μM (DMSO) (hPDE5 mutants [3]): 276

MFI (hPDE5 mutants [2]; [12]): 1810
MFI (hPDE5 mutants [2]; [13]): 3356
MFI (hPDE5 mutants [2]; [14]): 14531
MFI (hPDE5 mutants [2]; [15]): 17645
MFI (hPDE5 mutants [2]; [16]): 24322
MFI (hPDE5 mutants [2]; [17]): 24322
MFI (hPDE5 mutants [2]; [18]): 579
MFI (hPDE5 mutants [2]; [19]): 612
MFI (hPDE5 mutants [2]; [20]): 1709
MFI (hPDE5 mutants [2]; [21]): 2733
MFI (hPDE5 mutants [2]; [22]): 4197
MFI (hPDE5 mutants [2]; [23]): 4197
MFI (hPDE5 mutants [2]; [24]): 498
Vardenafil Stabilization ratio (hPDE5 mutants [2]): 3.89
Sildenafil Stabilization ratio (hPDE5 mutants [2]): 0.85
GFP by FACS, Sildenafil 10 μM (hPDE5 mutants [2]): 170
GFP by FACS, Vardenafil 1 μM (hPDE5 mutants [2]): 587
Substance: OT-001189: hPDE5 R732I AcGFP construct
MFI (hPDE5 mutants [3]; Tadalafil 11.11 μM): 2746
MFI (hPDE5 mutants [3]; Tadalafil 33.33 μM): 3970
MFI (hPDE5 mutants [3]; Tadalafil 100 μM): 5487
MFI (hPDE5 mutants [3]; Tadalafil 1000 μM): 5487
Sildenafil Destabilizing mutation coefficient (hPDE5 mutants [3]): 0.2
Vardenafil Destabilizing mutation coefficient (hPDE5 mutants [3]): 0.94
GFP by FACS, Sildenafil 0 μM (DMSO) (hPDE5 mutants [3]): 201
GFP by FACS, Vardenafil 0 μM (DMSO) (hPDE5 mutants [3]): 151
GFP protein levels (western blot) (hPDE5 mutants [4]): Modest ligand dependent stabilization of GFP levels

Vardenafil Stabilization ratio (hPDE5 mutants [2]): 0.59
Sildenafil Stabilization ratio (hPDE5 mutants [2]): 0.64
GFP by FACS, Sildenafil 10 μM (hPDE5 mutants [2]): 158
GFP by FACS, Vardenafil 1 μM (hPDE5 mutants [2]): 179
GFP protein levels (western blot) (hPDE5 mutants [4]): strong stabilization of GFP levels
Substance: OT-001192: hPDE5 R732W AcGFP construct
Sildenafil Destabilizing mutation coefficient (hPDE5 mutants [3]): 0.25
Vardenafil Destabilizing mutation coefficient (hPDE5 mutants [3]): 1.87
GFP by FACS, Sildenafil 0 μM (DMSO) (hPDE5 mutants [3]): 248
GFP by FACS, Vardenafil 0 μM (DMSO) (hPDE5 mutants [3]): 301
